Assay results published in patent publication US20160145257A1, “SUBSTITUTED XANTHINES AND METHODS OF USE THEREOF” (Hydra Biosciences, Inc., priority 2013, published 2016).

target: T1, hTRPC4 (Homo sapiens, UniProt Q9UBN4); assay: Whole-cell patch clamp, block of TRPC4 inward current; format: cell-based; conditions: read-out: hTRPC4 Patch Inwd (nM) (All Batches)
T1 sequence (Q9UBN4 1-977): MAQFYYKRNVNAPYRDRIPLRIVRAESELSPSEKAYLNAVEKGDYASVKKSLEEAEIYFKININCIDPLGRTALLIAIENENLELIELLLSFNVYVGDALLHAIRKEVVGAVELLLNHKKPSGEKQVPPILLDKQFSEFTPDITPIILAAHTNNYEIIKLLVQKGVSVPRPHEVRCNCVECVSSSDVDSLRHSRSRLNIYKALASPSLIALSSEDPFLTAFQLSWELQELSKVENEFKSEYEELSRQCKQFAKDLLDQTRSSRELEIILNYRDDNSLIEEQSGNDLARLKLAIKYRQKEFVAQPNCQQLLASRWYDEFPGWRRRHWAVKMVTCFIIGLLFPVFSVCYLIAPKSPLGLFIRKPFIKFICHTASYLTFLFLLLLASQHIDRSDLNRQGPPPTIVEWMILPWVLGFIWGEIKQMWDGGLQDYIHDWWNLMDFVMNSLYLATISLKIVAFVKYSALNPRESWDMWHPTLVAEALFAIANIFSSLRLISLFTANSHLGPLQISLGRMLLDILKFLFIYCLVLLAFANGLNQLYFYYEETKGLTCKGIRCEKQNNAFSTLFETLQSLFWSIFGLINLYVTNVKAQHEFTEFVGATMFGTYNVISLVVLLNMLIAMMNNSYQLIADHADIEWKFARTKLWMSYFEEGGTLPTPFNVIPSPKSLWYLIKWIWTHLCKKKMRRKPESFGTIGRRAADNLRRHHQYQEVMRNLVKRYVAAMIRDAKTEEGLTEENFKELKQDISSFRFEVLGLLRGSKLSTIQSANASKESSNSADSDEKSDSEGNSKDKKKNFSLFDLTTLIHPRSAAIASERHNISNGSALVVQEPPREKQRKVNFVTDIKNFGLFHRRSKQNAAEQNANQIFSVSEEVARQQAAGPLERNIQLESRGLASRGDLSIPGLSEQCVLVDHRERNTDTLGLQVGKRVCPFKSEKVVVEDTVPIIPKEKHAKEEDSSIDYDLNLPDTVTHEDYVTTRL

SMILES	IC50 [nM]
Cn1c(=O)c2c(nc(Oc3cccc(OC(F)(F)F)c3)n2Cc2ccc(Cl)cc2)n(C)c1=O [Compound 142, 7-(4-chlorobenzyl)-1,3-dimethyl-8-(3-(trifluoromethoxy)phenoxy)-1H-purine-2,6(3H,7H)-dione]	< 100

target: T2, hTRPC5 (Homo sapiens, UniProt Q9UL62); assay: Whole-cell patch clamp, block of LaCl3-activated TRPC5 inward current; format: cell-based; conditions: TRPC5-expressing HEK293 TREx cells, 80 μM LaCl3, inward current, IC50 estimated from 5 μM and 500 nM, read-out: hTRPC5 Patch La3+ Inwd (nM) (All Batches)
T2 construct: expressed in transfected cells; host or cells: HEK293 TREx cells with inducible TRPC5 expression
T2 sequence (Q9UL62 1-973): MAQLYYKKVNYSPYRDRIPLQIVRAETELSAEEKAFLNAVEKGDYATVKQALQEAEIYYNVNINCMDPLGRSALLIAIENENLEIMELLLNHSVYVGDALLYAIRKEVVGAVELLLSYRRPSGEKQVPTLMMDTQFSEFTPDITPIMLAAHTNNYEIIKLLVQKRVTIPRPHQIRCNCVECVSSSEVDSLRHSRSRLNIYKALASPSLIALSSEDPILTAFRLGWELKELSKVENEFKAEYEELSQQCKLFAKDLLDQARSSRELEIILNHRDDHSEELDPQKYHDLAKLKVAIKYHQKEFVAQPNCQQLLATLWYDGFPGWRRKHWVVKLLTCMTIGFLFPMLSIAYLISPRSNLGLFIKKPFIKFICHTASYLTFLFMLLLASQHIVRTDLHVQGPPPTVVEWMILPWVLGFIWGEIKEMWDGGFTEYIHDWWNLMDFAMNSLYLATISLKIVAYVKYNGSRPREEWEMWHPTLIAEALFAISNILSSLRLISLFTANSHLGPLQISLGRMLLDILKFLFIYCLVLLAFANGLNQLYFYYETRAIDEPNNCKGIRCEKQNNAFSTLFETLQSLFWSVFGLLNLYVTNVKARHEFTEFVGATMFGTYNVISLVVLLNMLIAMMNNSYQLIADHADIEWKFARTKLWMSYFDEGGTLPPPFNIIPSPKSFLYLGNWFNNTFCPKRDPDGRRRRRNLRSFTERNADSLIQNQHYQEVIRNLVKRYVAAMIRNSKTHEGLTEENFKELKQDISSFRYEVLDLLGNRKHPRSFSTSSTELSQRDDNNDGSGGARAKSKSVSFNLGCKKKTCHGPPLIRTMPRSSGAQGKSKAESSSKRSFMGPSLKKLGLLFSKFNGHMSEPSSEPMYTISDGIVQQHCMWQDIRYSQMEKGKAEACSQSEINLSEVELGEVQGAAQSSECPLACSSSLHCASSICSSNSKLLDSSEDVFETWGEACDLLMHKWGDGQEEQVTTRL
Summary of the method: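 Whole-cell recordings in induced TRPC5-expressing HEK293 TREx cells, holding −40 mV, 400 ms ramps −120 to +100 mV every 5 s; current activated by 80 μM external LaCl3 and 1,400 nM pipette free Ca2+ (pH 7.2 internal, 7.4 external). Inward block at −80 mV, with LaCl3 present; IC50 estimated from testing at 5 μM and 500 nM.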

SMILES	IC50 [nM]
Cn1c(=O)c2c(nc(Oc3cccc(OC(F)(F)F)c3)n2Cc2ccc(Cl)cc2)n(C)c1=O [Compound 142, 7-(4-chlorobenzyl)-1,3-dimethyl-8-(3-(trifluoromethoxy)phenoxy)-1H-purine-2,6(3H,7H)-dione]	< 100
COc1cccc(Cn2c(Oc3ccc(Br)cc3)nc3c2c(=O)n(C)c(=O)n3C)c1 [Compound 194, 8-(4-bromophenoxy)-7-(3-methoxybenzyl)-1,3-dimethyl-1H-purine-2,6(3H,7H)-dione]	1000 to 2000
Cn1c(=O)c2c(nc(Oc3cccc(C(F)(F)F)c3)n2CCCc2ccc(Cl)cc2)n(C)c1=O [Compound 195]	2000 to 10000
Cn1c(=O)c2c(nc(Oc3cccc(C(F)(F)F)c3)n2-c2ccc(Cl)cc2)n(C)c1=O [Compound 196]	2000 to 10000
Cn1c(=O)c2c(nc(Oc3cccc(OC(F)(F)F)c3)n2Cc2ccc(Cl)c(Cl)c2)n(C)c1=O [Compound 197, 7-(3,4-dichlorobenzyl)-1,3-dimethyl-8-(3-(trifluoromethoxy)phenoxy)-1H-purine-2,6(3H,7H)-dione]	< 100
Cn1c(=O)c2c(nc(Oc3cccc(OC(F)(F)F)c3)n2Cc2ccc(Cl)c(F)c2)n(C)c1=O [Compound 198, 7-(4-chloro-3-fluorobenzyl)-1,3-dimethyl-8-(3-(trifluoromethoxy)phenoxy)-1H-purine-2,6(3H,7H)-dione]	< 100
Cc1ccc(Oc2nc3c(c(=O)n(C)c(=O)n3C)n2Cc2ccc(Cl)cc2)cc1C(F)(F)F [Compound 199]	2000 to 10000
Cn1c(=O)c2c(nc(Oc3cc(Cl)cc(OC(F)(F)F)c3)n2Cc2ccc(Cl)cc2)n(C)c1=O [Compound 202, 8-(3-chloro-5-(trifluoromethoxy)phenoxy)-7-(4-chlorobenzyl)-1,3-dimethyl-1H-purine-2,6(3H,7H)-dione]	< 100
Cn1c(=O)c2c(nc(Oc3cccc(OC(F)(F)F)c3)n2Cc2cc(Cl)cc(Cl)c2)n(C)c1=O [Compound 204, 7-(3,5-dichlorobenzyl)-1,3-dimethyl-8-(3-(trifluoromethoxy)phenoxy)-1H-purine-2,6(3H,7H)-dione]	< 100
COc1cc(Cn2c(Oc3cccc(OC(F)(F)F)c3)nc3c2c(=O)n(C)c(=O)n3C)ccc1Cl [Compound 205, 7-(4-chloro-3-methoxybenzyl)-1,3-dimethyl-8-(3-(trifluoromethoxy)phenoxy)-1H-purine-2,6(3H,7H)-dione]	100 to 500
Cc1cc(Cn2c(Oc3cccc(OC(F)(F)F)c3)nc3c2c(=O)n(C)c(=O)n3C)ccc1Cl [Compound 206, 7-(4-chloro-3-methylbenzyl)-1,3-dimethyl-8-(3-(trifluoromethoxy)phenoxy)-1H-purine-2,6(3H,7H)-dione]	< 100
Cc1c(Oc2nc3c(c(=O)n(C)c(=O)n3C)n2Cc2ccc(Cl)cc2)cccc1C(F)(F)F [Compound 207, 7-(4-chlorobenzyl)-1,3-dimethyl-8-(2-methyl-3-(trifluoromethyl)phenoxy)-1H-purine-2,6(3H,7H)-dione]	2000 to 10000
CCCCCCOc1nc2c(c(=O)n(C)c(=O)n2C)n1Cc1ccc(Cl)cc1 [Compound 215, 7-(4-Chlorobenzyl)-8-(hexyloxy)-1,3-dimethyl-1H-purine-2,6(3H,7H)-dione]	< 100
Cn1c(=O)c2c(nc(OCC3CCCC3)n2Cc2ccc(Cl)cc2)n(C)c1=O [Compound 216, 7-(4-Chlorobenzyl)-8-(cyclopentylmethoxy)-1,3-dimethyl-1H-purine-2,6(3H,7H)-dione]	100 to 500
Cn1c(=O)c2c(nc(OCCCCCO)n2Cc2ccc(Cl)cc2)n(C)c1=O [Compound 217, 7-(4-Chlorobenzyl)-8-((5-hydroxypentyl)oxy)-1,3-dimethyl-1H-purine-2,6(3H,7H)-dione]	2000 to 10000
